Results on 20 molecules are retold here after US10457687B2, “Aminoacid derivatives, a process for their preparation and pharmaceutical compositions containing them” (LES LABORATOIRES SERVIER, priority 2015, dated 2019).

Assay [1] relates to H929 multiple myeloma tumour line. Kind of assay: In vitro cytotoxicity, MTT assay, 48 hours. The format is cell-based. The settings on record: H929 cells, 48 hours exposure, cell viability. How it is done: The cytotoxicity studies were carried out on the H929 multiple myeloma tumour line.
The cells are distributed onto microplates and exposed to the test compounds for 48 hours.
Background: Tetrazolium dyes change colour on reduction, which living cells bring about.

The next assay concerns the target Mcl-1 protein (Homo sapiens, UniProt Q07820). Kind of assay: Inhibition of Mcl-1 by the fluorescence polarisation technique (Method 1 or Method 2). The settings on record: for percentage fluorescence polarisation inhibition, Mcl-1 FP: partial inhibitors, @ 10 μM test compound; for IC50: fluorescence polarisation, Fluorescein labelled ligand, Method 1 (not underlined) or Method 2 (underlined), read-out: IC50 (μM) Mcl-1 FP. The format is binding. Put shortly:
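Binding measured by FP, with Mcl-1 protein and fluorescein-labelled ligand mixed with compounds in an 11-point series at 5% final DMSO. Method 2 used 10 nM each of protein and ligand in phosphate buffer (20 mM Na2HPO4, 1 mM EDTA, 50 mM NaCl, pH 7.4); Method 1 used 5 nM protein, 1 nM ligand in HEPES buffer (10 mM HEPES, 150 mM NaCl, 0.05% Tween 20, pH 7.4).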
For orientation: Polarisation of emitted light reports the rotation of a fluorescent probe.

Sequence of Mcl-1 protein (Q07820 whole entry): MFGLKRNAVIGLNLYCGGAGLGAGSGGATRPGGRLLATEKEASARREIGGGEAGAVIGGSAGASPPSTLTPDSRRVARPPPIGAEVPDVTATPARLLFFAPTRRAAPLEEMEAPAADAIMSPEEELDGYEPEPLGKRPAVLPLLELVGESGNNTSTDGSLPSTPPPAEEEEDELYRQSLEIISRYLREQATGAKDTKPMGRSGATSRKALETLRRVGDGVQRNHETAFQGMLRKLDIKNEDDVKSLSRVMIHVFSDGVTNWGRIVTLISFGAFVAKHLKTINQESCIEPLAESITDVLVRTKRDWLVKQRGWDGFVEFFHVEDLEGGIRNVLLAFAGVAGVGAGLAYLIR

In turn, `Cc1c(-c2c(-c3ccsc3)sc3ncnc(NC(Cc4ccccc4CN)C(=O)O)c23)ccc(OCCN2CCOCC2)c1Cl` [Example 37, 2-(aminomethyl)-N-[(5Ra)-5-{3-chloro-2-methyl-4-[2-(morpholin-4-yl)ethoxy]phenyl}-6-(thiophen-3-yl)thieno[2,3-d]pyrimidin-4-yl]-D-phenylalanine] gave an IC50 in assay [1] of more than 3750 nM. Besides, at Mcl-1 protein, the “percentage fluorescence polarisation inhibition, Mcl-1 FP” value was 18.7% @ 10 μM.
As for `Cc1c(-c2c(-c3ccc(F)o3)sc3ncnc(NC(Cc4ccccc4O)C(=O)O)c23)ccc(OCCN(C)C)c1Cl` [Example 28, N-[(5Sa)-5-{3-chloro-4-[2-(dimethylamino)ethoxy]-2-methylphenyl}-6-(5-fluorofuran-2-yl)thieno[2,3-d]pyrimidin-4-yl]-2-hydroxy-D-phenylalanine], the 50% inhibitory concentration (IC50) in assay [1] (Homo sapiens, NCI-H929) was more than 1880 nM; at Mcl-1 protein, 0.116 µM.
For the molecule `CCOc1nccc(COc2ccccc2CC(Nc2ncnc3sc(-c4ccc(F)cc4)c(-c4ccc(OCCN5CCN(C)CC5)c(Cl)c4C)c23)C(=O)O)n1` [Example 4, N-[(5Sa)-5-{3-chloro-2-methyl-4-[2-(4-methylpiperazin-1-yl)ethoxy]phenyl}-6-(4-fluorophenyl)thieno[2,3-d]pyrimidin-4-yl]-2-[(2-ethoxypyrimidin-4-yl)methoxy]-D-phenylalanine], the IC50 in assay [1] (Homo sapiens, NCI-H929) is 215 nM; at Mcl-1 protein it was 0.005 µM.
In assay [1], `COc1ccccc1C[C@@H](Nc1ncnc2sc(-c3ccc(F)cc3)c(-c3ccc(OCCN4CCN(C)CC4)c(Cl)c3C)c12)C(=O)O` [Example 2, N-[(5Ra)-5-{3-chloro-2-methyl-4-[2-(4-methylpiperazin-1-yl)ethoxy]phenyl}-6-(4-fluorophenyl)thieno[2,3-d]pyrimidin-4-yl]-2-methoxy-D-phenylalanine] had an IC50 of more than 600 nM. Also, the “percentage fluorescence polarisation inhibition, Mcl-1 FP” value on Mcl-1 protein worked out at 56.9% @ 10 μM.
In the same order, the values of `Cc1c(-c2c(-c3ccsc3)sc3ncnc(N[C@H](CC4CCCCC4)C(=O)O)c23)ccc(OCCN2CCN(C)CC2)c1Cl` [Example 31, N-[(5Ra)-5-{3-chloro-2-methyl-4-[2-(4-methylpiperazin-1-yl)ethoxy]phenyl}-6-(thiophen-3-yl)thieno[2,3-d]pyrimidin-4-yl]-3-cyclohexyl-D-alanine] are more than 3750 nM and 16.7% @ 10 μM.
As to `COc1ccccc1CC(Nc1ncnc2sc(-c3ccc(F)cc3)c(-c3ccc(OCCN4CCN(C)CC4)c(Cl)c3C)c12)C(=O)O` [Example 1, N-[(5Sa)-5-{3-chloro-2-methyl-4-[2-(4-methylpiperazin-1-yl)ethoxy]phenyl}-6-(4-fluorophenyl)thieno[2,3-d]pyrimidin-4-yl]-2-methoxy-D-phenylalanine], the IC50 was more than 600 nM in assay [1] (Homo sapiens, NCI-H929) and 0.127 µM on Mcl-1 protein.
For the molecule `Cc1c(-c2c(-c3ccsc3)sc3ncnc(NC(Cc4ccccc4CN)C(=O)O)c23)ccc(OCCN2CCOCC2)c1Cl` [Example 38, 2-(aminomethyl)-N-[(5Sa)-5-{3-chloro-2-methyl-4-[2-(morpholin-4-yl)ethoxy]phenyl}-6-(thiophen-3-yl)thieno[2,3-d]pyrimidin-4-yl]-D-phenylalanine], the IC50 in assay [1] (Homo sapiens, NCI-H929) was more than 3750 nM; at Mcl-1 protein, 1.87 µM.
For the molecule `CC#Cc1sc2ncnc(NC(Cc3ccccc3OCc3ccnn3CC(F)(F)F)C(=O)O)c2c1-c1ccc(OCCN2CCN(C)CC2)c(Cl)c1C` [Example 42, N-[(5Sa)-5-{3-chloro-2-methyl-4-[2-(4-methylpiperazin-1-yl)ethoxy]phenyl}-6-(prop-1-yn-1-yl)thieno[2,3-d]pyrimidin-4-yl]-2-{[1-(2,2,2-trifluoroethyl)-1H-pyrazol-5-yl]methoxy}-D-phenylalanine], the IC50 was 61 nM in assay [1] (Homo sapiens, NCI-H929) and 0.01 µM on Mcl-1 protein.
`Cc1c(-c2c(-c3ccsc3)sc3ncnc(N[C@H](Cc4ccccn4)C(=O)O)c23)ccc(OCCN2CCN(C)CC2)c1Cl` [Example 30, N-[(5Ra)-5-{3-chloro-2-methyl-4-[2-(4-methylpiperazin-1-yl)ethoxy]phenyl}-6-(thiophen-3-yl)thieno[2,3-d]pyrimidin-4-yl]-3-pyridin-2-yl-D-alanine]: the IC50 in assay [1] was more than 3750 nM. Moreover, at Mcl-1 protein, the “percentage fluorescence polarisation inhibition, Mcl-1 FP” value was 68.2% @ 10 μM.
For the molecule `CC#Cc1sc2ncnc(NC(Cc3ccccc3OCc3ccnc(CCOC)n3)C(=O)O)c2c1-c1ccc(OCCN2CCN(C)CC2)c(Cl)c1C` [Example 41, N-[(5Sa)-5-{3-chloro-2-methyl-4-[2-(4-methylpiperazin-1-yl)ethoxy]phenyl}-6-(prop-1-yn-1-yl)thieno[2,3-d]pyrimidin-4-yl]-2-{[2-(2-methoxyethyl)pyrimidin-4-yl]methoxy}-D-phenylalanine], the IC50 amounted to 7.38 nM in assay [1] (Homo sapiens, NCI-H929) and 0.006 µM at Mcl-1 protein.
As to `CC#Cc1sc2ncnc(NC(Cc3ccccc3OC)C(=O)O)c2c1-c1ccc(OCCN2CCN(C)CC2)c(Cl)c1C` [Example 39, N-[(5Sa)-5-{3-chloro-2-methyl-4-[2-(4-methylpiperazin-1-yl)ethoxy]phenyl}-6-(prop-1-yn-1-yl)thieno[2,3-d]pyrimidin-4-yl]-2-methoxy-D-phenylalanine], the IC50 in assay [1] (Homo sapiens, NCI-H929) came to 401 nM; at Mcl-1 protein, 0.025 µM.
`COc1ccccc1CC(Nc1ncnc2sc(-c3ccc(F)o3)c(-c3ccc(OCCN4CCN(C)CC4)c(Cl)c3C)c12)C(=O)O` [Example 16, N-[(5Sa)-5-{3-chloro-2-methyl-4-[2-(4-methylpiperazin-1-yl)ethoxy]phenyl}-6-(5-fluorofuran-2-yl)thieno[2,3-d]pyrimidin-4-yl]-2-methoxy-D-phenylalanine]: the IC50 in assay [1] (Homo sapiens, NCI-H929) was 99.3 nM; on Mcl-1 protein, 0.006 µM.
With `Cc1c(-c2c(-c3ccc(F)o3)sc3ncnc(NC(Cc4ccccc4OCC(F)(F)F)C(=O)O)c23)ccc(OCCN2CCN(C)CC2)c1Cl` [Example 17, N-[(5Sa)-5-{3-chloro-2-methyl-4-[2-(4-methylpiperazin-1-yl)ethoxy]phenyl}-6-(5-fluorofuran-2-yl)thieno[2,3-d]pyrimidin-4-yl]-2-(2,2,2-trifluoroethoxy)-D-phenylalanine], the IC50 is 294 nM in assay [1] (Homo sapiens, NCI-H929) and 0.057 µM on Mcl-1 protein.
Turning to `Cc1c(-c2c(-c3ccsc3)sc3ncnc(NC(Cc4ccccc4F)C(=O)O)c23)ccc(OCCN2CCN(C)CC2)c1Cl` [Example 34, N-[(5Sa)-5-{3-chloro-2-methyl-4-[2-(4-methylpiperazin-1-yl)ethoxy]phenyl}-6-(thiophen-3-yl)thieno[2,3-d]pyrimidin-4-yl]-2-fluoro-D-phenylalanine], the IC50 worked out at 4270 nM in assay [1] (Homo sapiens, NCI-H929) and 0.726 µM at Mcl-1 protein.
As for `CC#Cc1sc2ncnc(NC(Cc3ccccc3OCc3ccnc(OCC(F)(F)F)n3)C(=O)O)c2c1-c1ccc(OCCN(C)C)c(Cl)c1C` [Example 48, N-[(5Sa)-5-{3-chloro-4-[2-(dimethylamino)ethoxy]-2-methylphenyl}-6-(prop-1-yn-1-yl)thieno[2,3-d]pyrimidin-4-yl]-2-{[2-(2,2,2-trifluoroethoxy)pyrimidin-4-yl]methoxy}-D-phenylalanine], the IC50 in assay [1] (Homo sapiens, NCI-H929) turned out to be 16.1 nM; at Mcl-1 protein it was 0.007 µM.
As to `Cc1c(-c2c(-c3ccc(F)o3)sc3ncnc(NC(Cc4ccccc4OCc4ccnc(OCC(F)(F)F)n4)C(=O)O)c23)ccc(OCCN2CCN(C)CC2)c1Cl` [Example 26, N-[(5Sa)-5-{3-chloro-2-methyl-4-[2-(4-methylpiperazin-1-yl)ethoxy]phenyl}-6-(5-fluorofuran-2-yl)thieno[2,3-d]pyrimidin-4-yl]-2-{[2-(2,2,2-trifluoroethoxy)pyrimidin-4-yl]methoxy}-D-phenylalanine], the IC50 was 6.36 nM in assay [1] (Homo sapiens, NCI-H929) and 0.012 µM on Mcl-1 protein.
On to `Cc1c(-c2c(-c3ccc(F)o3)sc3ncnc(N[C@H](Cc4ccccc4OCc4ccnc(OCC(F)(F)F)n4)C(=O)O)c23)ccc(OCCN2CCN(C)CC2)c1Cl` [Example 25, N-[(5Ra)-5-{3-chloro-2-methyl-4-[2-(4-methylpiperazin-1-yl)ethoxy]phenyl}-6-(5-fluorofuran-2-yl)thieno[2,3-d]pyrimidin-4-yl]-2-{[2-(2,2,2-trifluoroethoxy)pyrimidin-4-yl]methoxy}-D-phenylalanine], for which the IC50 in assay [1] is more than 600 nM. Further, the “percentage fluorescence polarisation inhibition, Mcl-1 FP” value on Mcl-1 protein turned out to be 55.5% @ 10 μM.
For the molecule `CC#Cc1sc2ncnc(NC(Cc3ccccc3OCc3ccnn3CC(F)(F)F)C(=O)O)c2c1-c1ccc(OCCN(C)C)c(Cl)c1C` [Example 46, N-[(5Sa)-5-{3-chloro-4-[2-(dimethylamino)ethoxy]-2-methylphenyl}-6-(prop-1-yn-1-yl)thieno[2,3-d]pyrimidin-4-yl]-2-{[1-(2,2,2-trifluoroethyl)-1H-pyrazol-5-yl]methoxy}-D-phenylalanine], the concentration for half-maximal inhibition (IC50) in assay [1] (Homo sapiens, NCI-H929) stood at 166 nM; at Mcl-1 protein, 0.024 µM.
For the molecule `CCCCn1nccc1COc1ccccc1CC(Nc1ncnc2sc(-c3ccc(F)cc3)c(-c3ccc(OCCN4CCN(C)CC4)c(Cl)c3C)c12)C(=O)O` [Example 6, 2-[(1-butyl-1H-pyrazol-5-yl)methoxy]-N-[(5Sa)-5-{3-chloro-2-methyl-4-[2-(4-methylpiperazin-1-yl)ethoxy]phenyl}-6-(4-fluorophenyl)thieno[2,3-d]pyrimidin-4-yl]-D-phenylalanine], the IC50 in assay [1] (Homo sapiens, NCI-H929) was more than 600 nM; at Mcl-1 protein it was 0.013 µM.
`Cc1c(-c2c(-c3ccsc3)sc3ncnc(NC(Cc4ccccn4)C(=O)O)c23)ccc(OCCN2CCOCC2)c1Cl` [Example 36, N-[(5Sa)-5-{3-chloro-2-methyl-4-[2-(morpholin-4-yl)ethoxy]phenyl}-6-(thiophen-3-yl)thieno[2,3-d]pyrimidin-4-yl]-3-pyridin-2-yl-D-alanine]: the IC50 was more than 7500 nM in assay [1] (Homo sapiens, NCI-H929) and 0.086 µM at Mcl-1 protein.

Usually IC50 stands for the concentration that inhibits the measured activity by half.
